The compounds below were run on summer wheat of the cultivar 'Triso' (assay: Plant growth regulation test: culm stabilization of crop plants). Details: application rate of 30 to 300 g of active substance per hectare, treated at stage BBCH 31, culm length measured after ears had formed.
Type: in vivo
Procedure: With stirring, the compound of the formula (I) in question was, in the form of a water-dispersible powder, together with a surfactant (customary adjuvant at an application rate of 1 l/ha), mixed with water such that a homogenous spray liquor was formed, and applied at an application rate of 300 l of water/ha (converted).
Seeds of summer wheat of the cultivar ‘Triso’ were sown at a depth of 1 cm in plant pots and cultivated outdoors until treatment.
The plants were treated on a laboratory track sprayer with spray liquors of the test substances at macrostage 3 after having reached about 10% of the maximum longitudinal growth typical for the cultivar (stage BBCH 31) and, after the treatment, returned outdoors.
After the ears had formed, the length of the culms were measured. The culm stabilization was evaluated as a percentage of the untreated control.
In the case of Cc1ccncc1-n1nc(C)c(CC(=O)O)c1-c1ccc(F)cc1 [Example 1-37], the “longitudinal growth (culm length) of summer wheat” value (shortened to “longitudinal growth (culm length)”) is reported as “effectively shortened”.
In the case of COC(=O)Cc1c(C(F)F)nn(-c2cccnc2)c1-c1ccccc1 [Example 2-79], the “longitudinal growth (culm length)” value is reported as “effectively shortened”.
In the case of CCc1nn(-c2cccnc2)c(-c2ccccc2)c1CC(=O)OC [Example 2-74], the “longitudinal growth (culm length)” value is reported as “effectively shortened”.
In the case of Cc1nn(-c2cccnc2)c(-c2ccc(O)nc2)c1CC(=O)OCC1CC1 [Example 3-87], the “longitudinal growth (culm length)” value is reported as “effectively shortened”.
CSc1ccncc1-n1nc(C)c(CC(=O)O)c1-c1ccc(Cl)cc1 [Example 1-45] was tested, and the “longitudinal growth (culm length)” value was “effectively shortened”.
For Cc1ccncc1-n1nc(C)c(CC(=O)O)c1-c1cccc(Br)c1 [Example 1-40], the “longitudinal growth (culm length)” value was “effectively shortened”.
For COC(=O)Cc1c(C)nn(-c2ccc(OC)nc2)c1-c1ccccc1 [Example 2-5], the “longitudinal growth (culm length)” value was “effectively shortened”.
For Cc1ccncc1-n1nc(C)c(CC(=O)O)c1-c1ccc(-c2ccccc2)cc1 [Example 1-41], the “longitudinal growth (culm length)” value was “effectively shortened”.
For Cc1cccc(-c2c(CC(=O)O)c(C)nn2-c2cnccc2C)c1 [Example 1-38], the “longitudinal growth (culm length)” value was “effectively shortened”.
In the case of Cc1ccnc(-c2c(CC(=O)O)c(C)nn2-c2cnccc2C)c1 [Example 1-137], the “longitudinal growth (culm length)” value is reported as “effectively shortened”.
For COC(=O)Cc1c(C)nn(-c2cnccc2C)c1-c1ccc(C)cc1 [Example 2-36], the “longitudinal growth (culm length)” value was “effectively shortened”.
In the case of COC(=O)Cc1c(C)nn(-c2cnccc2C)c1-c1cc(C)cc(C)c1 [Example 2-33], the “longitudinal growth (culm length)” value is reported as “effectively shortened”.
With COC(=O)Cc1c(C)nn(-c2cccnc2)c1-c1cccc(C(F)(F)F)c1 [Example 2-18] the “longitudinal growth (culm length)” value was “effectively shortened”.
With Cc1ccncc1-n1nc(C)c(CC(=O)O)c1-c1ccsc1 [Example 1-56] the “longitudinal growth (culm length)” value was “effectively shortened”.
For Cc1ccncc1-n1nc(C)c(CC(=O)O)c1-c1ccc(C(C)(C)C)cc1 [Example 1-32], the “longitudinal growth (culm length)” value was “effectively shortened”.
For Cc1ccncc1-n1nc(C)c(CC(=O)OCC2CC2)c1-c1ccc(Cl)cc1 [Example 3-98], the “longitudinal growth (culm length)” value was “effectively shortened”.
For COC(=O)Cc1c(C)nn(-c2ccc(C)nc2C)c1-c1ccccc1 [Example 2-11], the “longitudinal growth (culm length)” value was “effectively shortened”.
For Cc1nn(-c2cccnc2)c(-c2ccccc2)c1CC(=O)OC(C)C [Example 3-36], the “longitudinal growth (culm length)” value was “effectively shortened”.
For COC(=O)Cc1c(C2CC2)nn(-c2cccnc2)c1-c1ccc(Cl)cc1 [Example 2-146], the “longitudinal growth (culm length)” value was “effectively shortened”.
In the case of Cc1nn(-c2cccnc2)c(-c2ccccc2)c1CC(=O)OC(C)C1CC1 (centres unmarked) [Example 3-144], the “longitudinal growth (culm length)” value is reported as “effectively shortened”.
With COC(=O)Cc1c(C)nn(-c2cccnc2)c1-c1ccncc1 [Example 2-126] the “longitudinal growth (culm length)” value was “effectively shortened”.
With COC(=O)Cc1c(C)nn(-c2cccnc2)c1-c1ccco1 [Example 2-4] the “longitudinal growth (culm length)” value was “effectively shortened”.
In the case of C#CCOC(=O)Cc1c(C)nn(-c2cccnc2)c1-c1ccccn1 [Example 3-73], the “longitudinal growth (culm length)” value is reported as “effectively shortened”.
With COc1ccc(-c2c(CC(=O)O)c(C)nn2-c2cccnc2)cc1 [Example 1-14] the “longitudinal growth (culm length)” value was “effectively shortened”.
COC(=O)Cc1c(C)nn(-c2cccnc2)c1-c1ccc(OC)cc1 [Example 2-14] was tested, and the “longitudinal growth (culm length)” value was “effectively shortened”.
COC(=O)Cc1c(C#N)nn(-c2cccnc2)c1-c1ccc(Cl)cc1 [Example 2-147] was tested, and the “longitudinal growth (culm length)” value was “effectively shortened”.
CC#CCOC(=O)Cc1c(C)nn(-c2cnccc2C)c1-c1ccccc1 [Example 3-139] was tested, and the “longitudinal growth (culm length)” value was “effectively shortened”.
With Cc1cc(C)cc(-c2c(CC(=O)O)c(C)nn2-c2cnccc2C)c1 [Example 1-33] the “longitudinal growth (culm length)” value was “effectively shortened”.
With Cc1ccc(-c2c(CC(=O)O)c(C)nn2-c2cnccc2C)cc1Cl [Example 1-49] the “longitudinal growth (culm length)” value was “effectively shortened”.
Cc1nn(-c2cccnc2)c(-c2ccccc2Cl)c1CC(=O)O [Example 1-31] was tested, and the “longitudinal growth (culm length)” value was “effectively shortened”.
In the case of C=C(Cl)COC(=O)Cc1c(C)nn(-c2cccnc2)c1-c1ccc(OC)nc1 [Example 3-193], the “longitudinal growth (culm length)” value is reported as “effectively shortened”.
CC#CCOC(=O)Cc1c(C)nn(-c2cccnc2)c1-c1ccc(Cl)cc1 [Example 3-118] was tested, and the “longitudinal growth (culm length)” value was “effectively shortened”.
In the case of Cc1nn(-c2cccnc2)c(-c2ccccc2)c1CC(=O)OCC1CC1(Cl)Cl (centres unmarked) [Example 3-113], the “longitudinal growth (culm length)” value is reported as “effectively shortened”.
With COC(=O)Cc1c(C)nn(-c2cccnc2)c1-c1ccc(C)c(Cl)c1 [Example 2-46] the “longitudinal growth (culm length)” value was “effectively shortened”.
With COC(=O)Cc1c(C)nn(-c2cccnc2)c1-c1cccc(C)c1 [Example 2-119] the “longitudinal growth (culm length)” value was “effectively shortened”.
Cc1nn(-c2ccc(Cl)nc2Cl)c(-c2ccccc2)c1CC(=O)O [Example 1-12] was tested, and the “longitudinal growth (culm length)” value was “effectively shortened”.
COC(=O)C(C)c1c(C)nn(-c2cnccc2C)c1-c1ccccc1 (centres unmarked) [Example 2-6] was tested, and the “longitudinal growth (culm length)” value was “effectively shortened”.
With C#CCOC(=O)Cc1c(C)nn(-c2cccnc2)c1-c1ccc(Cl)cc1 [Example 3-55] the “longitudinal growth (culm length)” value was “effectively shortened”.
For CCCc1nn(-c2cnccc2C)c(-c2ccc(Cl)cc2)c1CC(=O)OC [Example 2-124], the “longitudinal growth (culm length)” value was “effectively shortened”.
In the case of C/C=C/C(C)OC(=O)Cc1c(C)nn(-c2cccnc2)c1-c1ccccc1 (centres unmarked) [Example 3-160], the “longitudinal growth (culm length)” value is reported as “effectively shortened”.
Cc1nn(-c2cccnc2)c(-c2ccccn2)c1CC(=O)OC(C)C [Example 3-48] was tested, and the “longitudinal growth (culm length)” value was “effectively shortened”.
For Cc1csc(-c2c(CC(=O)OCC3CC3)c(C)nn2-c2cccnc2)c1 [Example 3-85], the “longitudinal growth (culm length)” value was “effectively shortened”.
With Cc1ccncc1-n1nc(C)c(CC(=O)O)c1-c1cccs1 [Example 1-52] the “longitudinal growth (culm length)” value was “effectively shortened”.
COC(=O)Cc1c(C)nn(-c2cccnc2)c1-c1cc(C)cc(C)c1 [Example 2-43] was tested, and the “longitudinal growth (culm length)” value was “effectively shortened”.
In the case of Cc1nn(-c2cccnc2)c(-c2ccc(Cl)cc2)c1CC(=O)OCC1(C)COC1 [Example 3-233], the “longitudinal growth (culm length)” value is reported as “effectively shortened”.
For COC(=O)Cc1c(C)nn(-c2cnccc2C)c1-c1cccc(C(F)(F)F)c1 [Example 2-19], the “longitudinal growth (culm length)” value was “effectively shortened”.
COc1ccncc1-n1nc(C)c(CC(=O)O)c1-c1ccccc1 [Example 1-34] was tested, and the “longitudinal growth (culm length)” value was “effectively shortened”.
For COC(=O)Cc1c(C)nn(-c2cccnc2)c1-c1ccccc1 [Example 2-2], the “longitudinal growth (culm length)” value was “effectively shortened”.
With Cc1nn(-c2ccc(C(F)(F)F)nc2)c(-c2ccccc2)c1CC(=O)O [Example 1-9] the “longitudinal growth (culm length)” value was “effectively shortened”.
For Cc1ccncc1-n1nc(C)c(CC(=O)O)c1-c1ccccc1Cl [Example 1-22], the “longitudinal growth (culm length)” value was “effectively shortened”.
